Columns and labels:
[1] = 101.33 kPa, Liquid
[2] = xn = mol fraction of the nth substance listed; settings: 101.3 kPa, Liquid

C1COCCO1 [1,4-dioxane]
[1], 303.15 K
Settings | mass density [kg/m3] | viscosity [mPa·s]
– | 1022.3 | 1.086

CCCCN [1-butanamine]
[1]
Settings | mass density [kg/m3] | viscosity [mPa·s]
303.15 K | 728.65 | 0.444
313.15 K | 719.17 | 0.393

CCC(C)=O [butanone]
[1], 303.15 K
Settings | mass density [kg/m3] | viscosity [mPa·s]
– | 799.69 | 0.365

CCCCOC(C)=O [butyl ethanoate]
[1], 303.15 K
Settings | mass density [kg/m3] | viscosity [mPa·s]
– | 871.28 | 0.644

Clc1ccccc1 [chlorobenzene]
[1], 303.15 K
Settings | mass density [kg/m3] | viscosity [mPa·s]
– | 1095.49 | 0.718

CCCCNCCCC [dibutylamine]
[1]
Settings | mass density [kg/m3] | viscosity [mPa·s]
303.15 K | 752.28 | 0.758
313.15 K | 743.44 | 0.665

CCCNCCC [dipropylamine]
[1]
Settings | mass density [kg/m3] | viscosity [mPa·s]
303.15 K | 731.21 | 0.512
313.15 K | 726.15 | 0.423

CCOC(C)=O [ethyl acetate]
[1], 303.15 K
Settings | mass density [kg/m3] | viscosity [mPa·s]
– | 888.42 | 0.399

O=[N+]([O-])c1ccccc1 [nitrobenzene]
[1], 303.15 K
Settings | mass density [kg/m3] | viscosity [mPa·s]
– | 1193.4 | 1.617

CCCN [propan-1-amine]
[1]
Settings | mass density [kg/m3] | viscosity [mPa·s]
303.15 K | 706.1 | 0.353
313.15 K | 696.04 | 0.313

CCCN [propan-1-amine] + ClC(Cl)(Cl)Cl
[2]
Settings | mass density, 303.15 K [kg/m3] | mass density, 313.15 K [kg/m3] | viscosity, 303.15 K [mPa·s] | viscosity, 313.15 K [mPa·s]
x1 = 0.0071 | 1569.84 | 1550.16 | 0.859 | 0.761
x1 = 0.0184 | 1561.86 | 1542.3 | 0.866 | 0.763
x1 = 0.0285 | 1554.57 | 1535.07 | 0.873 | 0.764
x1 = 0.0386 | 1547.37 | 1527.92 | 0.876 | 0.765
x1 = 0.0479 | 1540.78 | 1521.37 | 0.88 | 0.768
x1 = 0.0574 | 1533.92 | 1514.52 | 0.885 | 0.77
x1 = 0.0661 | 1527.48 | 1508.11 | 0.885 | 0.772
x1 = 0.0748 | 1521.24 | 1501.94 | 0.888 | 0.774
x1 = 0.0841 | 1514.3 | 1495.14 | 0.892 | 0.775

CCCN [propan-1-amine] + ClC(Cl)Cl
[2]
Settings | mass density, 303.15 K [kg/m3] | mass density, 313.15 K [kg/m3] | viscosity, 303.15 K [mPa·s] | viscosity, 313.15 K [mPa·s]
x1 = 0.01 | 1463.1 | 1441.12 | 0.523 | 0.474
x1 = 0.0207 | 1454.77 | 1433.07 | 0.526 | 0.478
x1 = 0.0296 | 1447.98 | 1426.56 | 0.529 | 0.481
x1 = 0.0426 | 1437.89 | 1416.8 | 0.533 | 0.485
x1 = 0.0491 | 1432.95 | 1411.95 | 0.536 | 0.488
x1 = 0.0595 | 1424.84 | 1403.97 | 0.539 | 0.491
x1 = 0.0689 | 1417.67 | 1396.96 | 0.542 | 0.495
x1 = 0.0796 | 1409.35 | 1388.75 | 0.544 | 0.496
x1 = 0.096 | 1396.86 | 1376.41 | 0.548 | 0.5

ClC(Cl)(Cl)Cl [tetrachloromethane]
[1]
Settings | mass density [kg/m3] | viscosity [mPa·s]
303.15 K | 1574.78 | 0.852
313.15 K | 1555.02 | 0.76

CCCCN(CCCC)CCCC [tributylamine]
[1]
Settings | mass density [kg/m3] | viscosity [mPa·s]
303.15 K | 770.21 | 1.167
313.15 K | 763.11 | 0.97

CCCCN(CCCC)CCCC [tributylamine] + ClC(Cl)Cl
[2]
Settings | mass density, 303.15 K [kg/m3] | mass density, 313.15 K [kg/m3] | viscosity, 303.15 K [mPa·s] | viscosity, 313.15 K [mPa·s]
x1 = 0.0102 | 1450.1 | 1428.49 | 0.533 | 0.479
x1 = 0.0205 | 1430.19 | 1409.15 | 0.545 | 0.488
x1 = 0.0308 | 1410.92 | 1390.4 | 0.557 | 0.496
x1 = 0.0404 | 1393.58 | 1373.58 | 0.569 | 0.504
x1 = 0.0505 | 1376.08 | 1356.5 | 0.583 | 0.513
x1 = 0.0598 | 1360.44 | 1341.35 | 0.593 | 0.522
x1 = 0.0695 | 1344.77 | 1326.07 | 0.606 | 0.529
x1 = 0.0799 | 1328.42 | 1310.05 | 0.615 | 0.538
x1 = 0.0856 | 1319.72 | 1301.56 | 0.621 | 0.545

ClC(Cl)Cl [trichloromethane]
[1]
Settings | mass density [kg/m3] | viscosity [mPa·s]
303.15 K | 1470.64 | 0.52
313.15 K | 1448.43 | 0.471

CCN(CC)CC [triethylamine]
[1], 303.15 K
Settings | mass density [kg/m3] | viscosity [mPa·s]
– | 718.44 | 0.33

CCN(CC)CC [triethylamine] + C1COCCO1
[2], 303.15 K
Settings | mass density [kg/m3] | viscosity [mPa·s]
x1 = 0.0138 | 1015.32 | 1.059
x1 = 0.0232 | 1010.65 | 1.042
x1 = 0.0349 | 1004.86 | 1.018
x1 = 0.0453 | 999.87 | 0.998
x1 = 0.0551 | 995.17 | 0.98
x1 = 0.0691 | 988.57 | 0.955
x1 = 0.0803 | 983.41 | 0.932
x1 = 0.0909 | 978.57 | 0.914
x1 = 0.1006 | 974.22 | 0.899
x1 = 0.1128 | 968.78 | 0.877

CCN(CC)CC [triethylamine] + CCC(C)=O
[2], 303.15 K
Settings | mass density [kg/m3] | viscosity [mPa·s]
x1 = 0.011 | 798.96 | 0.362
x1 = 0.0217 | 798.22 | 0.36
x1 = 0.0315 | 797.6 | 0.357
x1 = 0.0413 | 796.87 | 0.355
x1 = 0.0508 | 796.32 | 0.353
x1 = 0.0597 | 795.5 | 0.351
x1 = 0.0697 | 794.8 | 0.347
x1 = 0.0801 | 794.25 | 0.344
x1 = 0.0915 | 793.37 | 0.341
x1 = 0.1022 | 792.79 | 0.338

CCN(CC)CC [triethylamine] + CCCCOC(C)=O
[2], 303.15 K
Settings | mass density [kg/m3] | viscosity [mPa·s]
x1 = 0.0065 | 870.3 | 0.641
x1 = 0.0144 | 869.1 | 0.638
x1 = 0.0226 | 867.85 | 0.631
x1 = 0.0293 | 866.83 | 0.628
x1 = 0.0378 | 865.53 | 0.623
x1 = 0.0454 | 864.42 | 0.618
x1 = 0.0509 | 863.54 | 0.613
x1 = 0.0596 | 862.22 | 0.607
x1 = 0.0668 | 861.13 | 0.603
x1 = 0.0733 | 860.14 | 0.599

CCN(CC)CC [triethylamine] + CCOC(C)=O
[2], 303.15 K
Settings | mass density [kg/m3] | viscosity [mPa·s]
x1 = 0.0127 | 885.47 | 0.395
x1 = 0.0205 | 883.69 | 0.389
x1 = 0.0323 | 881 | 0.386
x1 = 0.0407 | 879.1 | 0.382
x1 = 0.0522 | 876.53 | 0.379
x1 = 0.0608 | 874.62 | 0.376
x1 = 0.0702 | 872.41 | 0.374
x1 = 0.0783 | 870.58 | 0.371
x1 = 0.09 | 867.91 | 0.369
x1 = 0.0996 | 866.05 | 0.367

CCN(CC)CC [triethylamine] + Clc1ccccc1
[2], 303.15 K
Settings | mass density [kg/m3] | viscosity [mPa·s]
x1 = 0.0118 | 1089.87 | 0.709
x1 = 0.0193 | 1086.26 | 0.702
x1 = 0.0299 | 1081.32 | 0.694
x1 = 0.0415 | 1075.87 | 0.685
x1 = 0.0493 | 1072.21 | 0.677
x1 = 0.0595 | 1067.48 | 0.672
x1 = 0.071 | 1062.15 | 0.664
x1 = 0.0792 | 1058.37 | 0.658
x1 = 0.0893 | 1053.74 | 0.652
x1 = 0.0994 | 1049.13 | 0.645

CCN(CC)CC [triethylamine] + O=[N+]([O-])c1ccccc1
[2], 303.15 K
Settings | mass density [kg/m3] | viscosity [mPa·s]
x1 = 0.0113 | 1186.81 | 1.59
x1 = 0.0201 | 1181.7 | 1.569
x1 = 0.0288 | 1176.68 | 1.547
x1 = 0.0404 | 1169.97 | 1.521
x1 = 0.0506 | 1164.25 | 1.499
x1 = 0.0601 | 1158.7 | 1.48
x1 = 0.0688 | 1153.74 | 1.466
x1 = 0.0819 | 1146.33 | 1.44
x1 = 0.091 | 1141.21 | 1.422
x1 = 0.1005 | 1136.48 | 1.407

CCCN(CCC)CCC [tripropylamine]
[1]
Settings | mass density [kg/m3] | viscosity [mPa·s]
303.15 K | 749.15 | 0.598
313.15 K | 740.41 | 0.538

CCCN(CCC)CCC [tripropylamine] + ClC(Cl)(Cl)Cl
[2]
Settings | mass density, 303.15 K [kg/m3] | mass density, 313.15 K [kg/m3] | viscosity, 303.15 K [mPa·s] | viscosity, 313.15 K [mPa·s]
x1 = 0.0103 | 1558.08 | 1538.54 | 0.848 | 0.754
x1 = 0.0203 | 1542.01 | 1522.71 | 0.84 | 0.747
x1 = 0.0304 | 1526.35 | 1507.24 | 0.829 | 0.739
x1 = 0.0398 | 1511.85 | 1492.94 | 0.819 | 0.733
x1 = 0.0497 | 1496.93 | 1478.28 | 0.811 | 0.726
x1 = 0.0606 | 1480.86 | 1462.46 | 0.802 | 0.718
x1 = 0.0695 | 1468.02 | 1449.76 | 0.795 | 0.712
x1 = 0.0786 | 1455.03 | 1437.01 | 0.788 | 0.706
x1 = 0.0893 | 1440.17 | 1422.3 | 0.78 | 0.699

CCCN(CCC)CCC [tripropylamine] + ClC(Cl)Cl
[2]
Settings | mass density, 303.15 K [kg/m3] | mass density, 313.15 K [kg/m3] | viscosity, 303.15 K [mPa·s] | viscosity, 313.15 K [mPa·s]
x1 = 0.0106 | 1453.58 | 1431.77 | 0.531 | 0.476
x1 = 0.0206 | 1437.45 | 1416.02 | 0.541 | 0.48
x1 = 0.032 | 1419.7 | 1398.73 | 0.546 | 0.485
x1 = 0.0396 | 1407.99 | 1387.54 | 0.554 | 0.489
x1 = 0.0509 | 1391.16 | 1370.93 | 0.563 | 0.493
x1 = 0.0596 | 1378.63 | 1358.79 | 0.568 | 0.501
x1 = 0.0693 | 1364.78 | 1345.21 | 0.579 | 0.504
x1 = 0.0787 | 1351.78 | 1332.44 | 0.59 | 0.511
x1 = 0.0883 | 1338.63 | 1319.39 | 0.598 | 0.516

— the NIST ThermoML archive (doi:10.1016/j.tca.2004.08.013)
